The values below come from a melting point compilation (Tetko et al.; mined from patent text by program, amines drawn as free bases though some values may be those of a salt).

As usually defined, the melting point is the temperature of the solid-liquid transition.

Bounds are passed on as bounds.

`Nc1cc2ccncc2c2sc3ccccc3c12` returned a melting point of 220 to 225 °C.

`CCS(=O)(=O)N(C(C)=O)c1cc(-c2ncnc(C(F)F)c2Cl)c(F)cc1C#N`: the melting point was in the range of 123 to 124 °C.

The compound `Sc1nc2cc3c(cc2[nH]1)COCO3` registered a melting point of 288 to 289 °C.

On to `O=c1[nH][nH]c(=O)c(-c2c(F)cc(F)cc2F)c1-c1ccc(Br)cc1`, for which the melting point is 134 to 137 °C.

`COC(=O)c1ccccc1NC1C=CC(=O)O1` (configuration not stated) returned a melting point of 172 to 173 °C.

Compound `Cc1nnc(-c2ccccc2)n1-c1ccccc1` showed a melting point of 163 °C.

`c1cncc(C2CCCCS2)c1` (racemic) came in with a melting point of 49 °C.

Consider `CC(=O)Oc1ccc2c(c1)C1C(OC(=O)C(C)(C)C)CC3(C)C(OC(=O)C(C)(C)C)CCC3C1CC2` (configuration not stated), for which the melting point lay in the range of 143 to 146 °C.

With `CCOC(=O)Cc1ccc(NC(=O)C(COc2ccc(Cl)cc2)NS(=O)(=O)c2ccc(Br)cc2)cc1` (racemic), the melting point was in the range of 154 to 156 °C.

`N#Cc1cccc2c1S(=O)(=O)c1ccccc1C2=O` gave a melting point of 252 to 254 °C.

Compound `O=C(CCC12CCC(=O)N1C(=O)CC2)OCc1ccccc1` gave a melting point of 80 to 82 °C.

The compound `O=C1c2ccccc2S(=O)(=O)N1CCCCOc1ccc(OCc2ccccc2)cc1` gave a melting point of 82 to 84 °C.

`Cc1cc(-c2nc3cccnn3c2-c2ccnc(NC(=O)c3ccccc3C)c2)ccc1F` gave a melting point of 265 to 266 °C.

`Cc1nc2c(OC3CCc4ccccc43)nccc2n1C` (configuration not stated) returned a melting point of 164 to 165 °C.

`O=C(O)c1cn(C2CC2)c2cc(N3CCNC(c4ccoc4)C3)c(F)cc2c1=O` (configuration not stated) returned a melting point of 202 to 204 °C.

`COc1ccc(C(=O)NNC(C)=O)cc1`: the melting point was 146 to 148 °C.

The compound `Nc1cnccc1N1CCc2ccccc21` had a melting point of 89 °C.

The compound `CC1NC(=O)NN=C1c1ccc2c(c1)C(C)(C)C(=O)N2` (configuration not stated) registered a melting point of 292 °C.

Compound `Cc1cc(C)cc(OCC(O)CCCl)c1` (configuration not stated) had a melting point of 74 to 76 °C.

For the compound `O=C(O)c1oc2ccccc2c1CCc1ccccc1`, the melting point lay within 169 to 172 °C.

Compound `COC(=O)c1cc2c(I)cccc2cn1` showed a melting point of 165 to 167 °C.

In turn, `O=C1CCC(CCc2ccc(-c3ccccc3)cc2)N1O` (configuration not stated) registered a melting point of 192 to 194 °C.

Regarding `Cc1ccc2c(c1)Oc1ncc([N+](=O)[O-])cc1C(=O)N2C`, the melting point is 197 to 198 °C.

As to `CC(C)N(C(C)C)S(=O)(=O)N[C@@H](Cc1ccc(Nc2nccc3cnccc23)cc1)C(=O)O`, the melting point stood at 168 °C.

In turn, `COc1cccc(CNC(=O)c2ccc(COC3CCCCO3)cc2)c1` (configuration not stated) returned a melting point of 66 to 68.5 °C.

Compound `COCCc1ccc(OCC(O)CO)cc1` (configuration not stated) registered a melting point of 25 °C.

`Cc1ccc(Cl)c(C)c1Nn1cc(C#N)c(=O)[nH]c1=O` showed a melting point greater than 320 °C.

The compound `CCOc1nc(C)nc(N2CCc3ccccc3CC2)c1C#N` registered a melting point of 106 to 109 °C.

Regarding `C=CCN(CC=C)C(=O)n1cnc(S(=O)C(C)C)n1` (configuration not stated), the melting point is 32 to 34 °C.

As to `Cc1c(Cl)nc2c(C=O)cnn2c1Cl`, the melting point lay within 137 to 139 °C.

Regarding `O=C(/C=C/c1ccc(S(=O)(=O)N2CCN(c3ccc([N+](=O)[O-])cc3)CC2)cc1)NO`, the melting point lay within 199 to 200 °C.

`CC(=O)N1c2ccccc2SC1C#N` (configuration not stated) returned a melting point of 92 to 93 °C.

Consider `CCOC(=O)CCCOc1ccc(CC(C)(C)N)cc1`, for which the melting point was 103 to 105 °C.

Turning to `C=CCc1c(OCc2ccc3ccccc3n2)ccc2c1c(SC(C)(C)C)c(CC(C)(C)C(=O)O)n2Cc1ccc(Cl)cc1`, the melting point was 103 to 105 °C.

The compound `CN(O)C(=O)Nc1ccc(Cl)c(C(F)(F)F)c1` showed a melting point of 114 to 115 °C.

Take `Cc1nc(C)c(C(=O)O)c(-c2ccccc2F)c1C(=O)O`: the melting point was greater than 285 °C.

Compound `CC(C)(N)c1ccc(C(=O)Nc2cn3cc(Cl)ccc3n2)cc1` had a melting point of 235 to 237 °C.

For `CCOc1cnc(C)c(S(=O)(=O)c2ccc(OCc3ccccc3)cc2)c1`, the melting point was in the range of 133 to 134 °C.

As to `O=C(Nc1noc2ccccc12)N1CCN(c2nc(-c3ccccc3)co2)CC1`, the melting point lay within 171 to 172 °C.

In turn, `COc1ccc(-n2c(-c3ccc(SC)cc3)nc(SC)c(C#N)c2=O)cc1` came in with a melting point of 214 to 216 °C.

Compound `O=C1CCc2cc3[nH]c(-c4ccncc4)nc3cc2N1` yielded a melting point of 285 to 288 °C.

`CC(C)(C)NC(=S)c1nn(-c2ccc(F)cc2F)c2c1C1CCC2C1` (configuration not stated) gave a melting point of 148 to 150 °C.

In the case of `O=C(O)c1cc2cc(Br)cc(Br)c2nc1NC(Cc1ccccc1)C(=O)O` (configuration not stated), the melting point fell in the range of 115 to 117 °C.

Compound `Cc1cccc2c(=O)[nH]c(CCN3CC[C@H](O)C3)cc12` displayed a melting point of 176 to 178 °C.

Regarding `O=C(N=CNO)c1cc2c(cn1)[nH]c1ccccc12`, the melting point lay in the range of 235 to 240 °C.

On to `CC(C)(C)OC(=O)Nc1ncccc1Br`, for which the melting point fell in the range of 120 to 121 °C.

As to `O=c1oc(-c2c(F)cccc2Cl)nn1-c1ccccc1Cl`, the melting point was 92 to 95 °C.

Compound `CCOc1nc(NCc2ccco2)nc(Nc2ccc(OC)c(OC)c2)n1` yielded a melting point of 100 to 102 °C.

Take `CC(=O)N1CCC(C(=O)c2ccc(Br)cc2)CC1`: the melting point is 120 °C.

For `CN(C)c1ccc(-c2ccccc2C(=O)O)nc1`, the melting point was 234 to 236 °C.

Compound `COC(=O)Cc1ccc(OCCNC(=O)C2Cc3ccccc3N2S(=O)(=O)c2ccc(-c3cc(C(F)(F)F)ccc3Cl)cc2)c(Cl)c1` (configuration not stated) had a melting point of 68 to 76 °C.

`O=C(O)CCc1ccnc(-c2nc(=O)c3ccccc3s2)c1`: the melting point is 215 to 216 °C.

Regarding `Cc1ccn(-c2ccc(C(=O)N3Cc4ccc(C)n4Cc4ccccc43)c(Cl)c2)n1`, the melting point lay in the range of 178 to 180 °C.

`O=C(O)CCCCCSc1ccc(O)cc1` yielded a melting point of 92 to 94 °C.

`C[C@H]1CCCC(C)(C)[C@@H]1[C@H](O)c1ccc(C#N)c(Cl)c1` yielded a melting point of 116 to 118 °C.

`CS(=O)(=O)N[C@H]1CC[C@H](Nc2nccc(-n3ncc4ccccc43)n2)CC1` had a melting point of 270 °C.

For the compound `CCc1cccc2c3c([nH]c12)C1(CC(=O)O)CC1CC3` (configuration not stated), the melting point is 154 to 156 °C.

In turn, `COC(=O)Cc1ccccc1S(=O)(=O)NC(=O)Nc1nc(Cl)cc(Cl)n1` had a melting point of 115 to 118 °C.

As to `CON1CCC2(CC1)C(O)=C(c1c(C)cc(C)cc1C)C(=O)N2OC1CCCO1` (configuration not stated), the melting point lay in the range of 144 to 146 °C.

The compound `O=C(O)Cn1cc(Cl)c(-c2cc(Cl)cc(Cl)c2)n1` gave a melting point of 182 °C.

In the case of `CC(C)(O)c1cc(O)cc(C(C)(C)O)c1`, the melting point was 137 to 138 °C.

For `CC(C)S(=O)(=O)c1cc(C#N)c(N)c(OCCCS(C)(=O)=O)c1`, the melting point lay within 142 to 143 °C.

`CNC(=O)c1cc2c(nc(C)n2C)c2c1CCC1(Cc3ccccc3C1)N2` displayed a melting point of 237 to 238 °C.

In turn, `C=CCCn1cc(Br)cnc1=O` yielded a melting point of 127 to 128 °C.

In turn, `CC(C)C(=O)NCCOc1ccc(N)cc1` registered a melting point of 99 to 100 °C.

Compound `[N-]=[N+]=CC(=O)C(Cc1ccc(F)cc1)NC(=O)OCc1ccccc1` (racemic) yielded a melting point of 97 °C.

`NS(=O)(=O)c1cc2c(s1)SC(CCO)CN2` (configuration not stated) registered a melting point of 145 to 147 °C.

Turning to `CCC1(O)CSC(=S)N1c1cccc(C)n1` (configuration not stated), the melting point amounted to 118 °C.

Compound `Cn1c(CC(=O)O)ccc1C(=O)c1cccs1` registered a melting point of 141 to 142 °C.

The compound `O=C(NN=C(c1ccc(Cl)cc1)c1ccc(OC(F)(F)C(Cl)Cl)cc1)c1ccccc1` showed a melting point of 121 to 122 °C.

`CC(C)(C)OC(=O)N[C@H]1CC[C@@H](OS(C)(=O)=O)C1` registered a melting point of 88 to 89 °C.

For the compound `CC(C)(C)CC(C)(C)c1ccc(Oc2ccc(C(F)(F)F)cc2NC(=O)Nc2cc(C(F)(F)F)cc(C(F)(F)F)c2)c(C(=O)O)c1`, the melting point was 233 °C.

As to `COc1cc(F)ccc1CCN1c2nc(-c3ccncn3)cc(=O)n2CCC1C` (configuration not stated), the melting point was 148 to 150 °C.

Regarding `CC(O)(C(=O)Nc1ccc(C(=O)c2ccccc2)cc1F)C(F)(F)F` (configuration not stated), the melting point is 138 to 139 °C.

For the compound `O=C(c1ccc([N+](=O)[O-])cc1)N1CCCCc2sc(Cl)c(Cl)c21`, the melting point is 140 to 142 °C.

In turn, `CSc1nc(=O)[nH]c(C)c1Br` gave a melting point of 244 °C.

For the compound `O=S(=O)(c1[nH]c(-c2ccc(Cl)cc2)c(Br)c1Br)C(F)(F)F`, the melting point fell in the range of 165 to 168 °C.

`O=C(c1cc(C(F)(F)F)cc(C(F)(F)F)c1)N1CCC2(CC1)C(=O)NCN2c1ccccc1Cl` had a melting point of 157 to 159 °C.

The compound `Cc1c(C(=O)O)oc2cc(S)ccc12` displayed a melting point of 230 to 232 °C.

For the compound `COC(=O)c1c(C(F)F)nc(C(F)(F)F)c(C2CC(C)N(O)C2)c1CC1CC1` (configuration not stated), the melting point was in the range of 142 to 144 °C.

As to `COc1ccc(C=O)c(OC)c1I`, the melting point stood at 103 °C.

Compound `Cc1ccc(Cc2cnc(NCCCCc3ncc(Br)cc3N)[nH]c2=O)cn1` gave a melting point of 196 to 197 °C.

`CCCCCc1nc2ccc(C(=O)O)cc2c(=O)[nH]1` yielded a melting point of 310 to 312 °C.

For the compound `COC(=O)COc1ccc(OCC2CCN(c3ccncc3)CC2)cc1`, the melting point was 127 to 129 °C.

`CC(C)(C)C(NC(=O)c1cccc(Cl)c1)Nc1c(Nc2cccnc2Cl)c(=O)c1=O` (configuration not stated) registered a melting point of 213 to 214 °C.

Compound `N#Cc1cnn(-c2ccccn2)c1N` displayed a melting point of 197 to 200 °C.

`CC(CCO)C(c1cc(F)ccc1F)S(=O)(=O)c1ccc(Cl)cc1` (configuration not stated) gave a melting point of 65 to 67 °C.

For the compound `CC1COc2c(C3CC3)c(F)cc3c(=O)c(C(=O)O)cn1c23` (configuration not stated), the melting point is 263 to 265 °C.

In turn, `CC(CO)NC(=O)CCCCC1CCSS1` (configuration not stated) yielded a melting point of 52 to 56 °C.

Turning to `COc1ccc(C(=O)N[C@H]2CCN(C)C[C@H]2c2ccccc2)cc1OC` (relative stereo), the melting point was in the range of 153 to 155 °C.

With `COc1ccccc1CC(=O)N1C[C@@H]2[C@H](C1)[C@@](O)(c1ccccc1OC)[C@H](O)CC2(c1ccccc1)c1ccccc1` (racemic), the melting point stood at 278 °C.

Turning to `CCCC(NS(=O)(=O)c1ccccc1)P(=O)(Oc1ccccc1)Oc1ccccc1` (configuration not stated), the melting point lay within 173 to 175 °C.
